Results published in PubChem BioAssay AID1963858 (Molecular Pharmacology Branch, DTP, NCI, 2024).

System: HOP-62 multicell spheroids with HUVEC/MSC, viability
Assay: Anticancer human tumor HOP-62 cell line growth inhibition [KRAS2];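 also: viability read after a week of compound exposure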;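 as to viability, T/C: 100% = DMSO vehicle-treated spheroids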
Settings: for IC50: curve of first compound; for viability, T/C: stronger effect = lower value
Description: Multicellular complex tumor spheroid response to RAS pathway inhibitors in combination with a targeted agents in patient-derived cell lines with oncogenic KRAS variants from multiple cancer types
A high-throughput screen of multi-cell type tumor spheroids was designed to identify active combinations of targeted small molecules and KRAS pathway inhibitors. Complex spheroids include a stromal component modeled by human endothelial cells (HUVEC) and fibroblasts modeled by human mesenchymal stem cells (MSCs). The concentration ranges selected for each drug and investigational agent were based upon clinically achievable concentrations if the clinical Cmax of the agent was known.
Compounds. The drugs and investigational agents: BI-3406 (NSC825286), BAY-293 (NSC824723), batoprotafib (TNO155; NSC825523), sotorasib (AMG 510; NSC818433), MRTX1257 (NSC819558), elimusertib (BAY 1895344; NSC800525), molibresib (GSK525762; NSC774829), temuterkib (LY3214996; NSC803410), venetoclax (NSC766270), alisertib (NSC759677), olaparib (NSC753686), talazoparib (NSC767125), erdafitinib (NSC781556), ipatasertib (NSC767898), cabozantinib (NSC761068), nintedanib (NSC756659), abemaciclib (NSC768073), docetaxel (NSC628503), trametinib (NSC758246), and sapanisertib (NSC764658) were obtained from the National Cancer Institute (NCI) Developmental Therapeutics Program Chemical Repository. The FDA-approved anticancer drug set is available from the Developmental Therapeutics Program. […] The stock solutions were prepared in dimethyl sulfoxide (DMSO, Sigma-Aldrich, St. Louis, MO, cat. D2650) at 800-fold the tested concentration and stored at -70 degrees C prior to their use. All drugs and investigational agents were tested over a range starting from a high concentration at or near the clinical Cmax and decreasing in half-log increments. If the clinical Cmax for an agent had not been determined, the highest concentration tested was 10 microM.
Cell Culture. All cells were maintained in an incubator at 37 degrees C and 5% CO2 with 95% humidity. The PDC lines were cultured according to standard operating procedures established by the NCI PDMR (https://pdmr.cancer.gov/sops/default.htm). Briefly, all PDCs were thawed and cultured in Matrigel-coated flasks prepared with a working solution of 1X Ham's F-12 nutrient mix, without supplementation (Invitrogen, Waltham, MA, cat. 11765054), 100 U/mL penicillin-streptomycin (Invitrogen, cat. 15140122), and 2.5% Matrigel (Corning Inc., Corning, NY, cat. 354248) for the first three passages. All PDCs were cultured in complete DMEM/F-12 media containing advanced DMEM/F-12 (Invitrogen, cat. 12634028), 4.9% defined fetal bovine serum, heat inactivated (HyClone Laboratories Inc., Logan, UT, cat. SH30070.03HI), 389 ng/mL hydrocortisone (Sigma-Aldrich, cat. H4001), 9.7 ng/mL human EGF recombinant protein (Invitrogen, cat. PHG0313), 23.4 microg/mL adenine (Sigma-Aldrich, cat. A2786), 97.3 U/mL penicillin-streptomycin (Invitrogen, cat. 15140122), 1.9 mM L-glutamine (Invitrogen, cat. 25030081), and 9.7 microM Y-27632 dihydrochloride (Tocris Bioscience, Bristol, United Kingdom, cat. 1254). The PDCs were cultured in complete DMEM/F12 media without 9.7 microM Y-27632 dihydrochloride for at least two passages prior to the screen. The established cell line HOP-62 was cultured in RPMI 1640 medium, HEPES (Invitrogen, cat. 22400105) with 10% defined fetal bovine serum (HyClone Laboratories Inc., cat. SH30070.03) and 2 mM L-glutamine (Invitrogen, cat. 25030081). The pooled donor HUVEC were cultured in endothelial cell growth medium 2 (PromoCell, Heidelberg, Germany, cat. C-22011) and the hMSC were cultured in mesenchymal stem cell growth medium 2 (PromoCell, cat. C-28009). For all experiments, HUVEC and hMSC were used at passages </=5, while the malignant cell lines were used at passages </=15. […]

CC(=O)Nc1cccc(-n2c(=O)n(C3CC3)c(=O)c3c(Nc4ccc(I)cc4F)n(C)c(=O)c(C)c32)c1 + C=CC(=O)N1CCN(c2nc(=O)n(-c3c(C)ccnc3C(C)C)c3nc(-c4c(O)cccc4F)c(F)cc23)C(C)C1
IC50 (second compound 0.1 µM): 0.78 nM | IC50 (second compound 0.316 µM): 0.879 nM | IC50 (second compound 1 µM): 0.915 nM | IC50 (second compound 3.16 µM): 0.561 nM | IC50 (second compound 10 µM): 0.124 nM | viability, T/C (second compound 0.1 µM, first compound 0.0001 µM): 78.5% | viability, T/C (second compound 0.1 µM, first compound 0.000316 µM): 61.2% | viability, T/C (second compound 0.1 µM, first compound 0.001 µM): 49.1% | viability, T/C (second compound 0.1 µM, first compound 0.00316 µM): 29.7% | viability, T/C (second compound 0.1 µM, first compound 0.01 µM): 18.9% | viability, T/C (second compound 0.1 µM, first compound 0.0316 µM): 14.7% | viability, T/C (second compound 0.316 µM, first compound 0.0001 µM): 61.6% | viability, T/C (second compound 0.316 µM, first compound 0.000316 µM): 72.7% | viability, T/C (second compound 0.316 µM, first compound 0.001 µM): 43.8% | viability, T/C (second compound 0.316 µM, first compound 0.00316 µM): 30.2% | viability, T/C (second compound 0.316 µM, first compound 0.01 µM): 19.2% | viability, T/C (second compound 0.316 µM, first compound 0.0316 µM): 16.8% | viability, T/C (second compound 1 µM, first compound 0.0001 µM): 73.8% | viability, T/C (second compound 1 µM, first compound 0.000316 µM): 61.7% | viability, T/C (second compound 1 µM, first compound 0.001 µM): 51% | viability, T/C (second compound 1 µM, first compound 0.00316 µM): 32% | viability, T/C (second compound 1 µM, first compound 0.01 µM): 22.6% | viability, T/C (second compound 1 µM, first compound 0.0316 µM): 18.5% | viability, T/C (second compound 3.16 µM, first compound 0.0001 µM): 77.2% | viability, T/C (second compound 3.16 µM, first compound 0.000316 µM): 50.6% | viability, T/C (second compound 3.16 µM, first compound 0.001 µM): 44.5% | viability, T/C (second compound 3.16 µM, first compound 0.00316 µM): 39.4% | viability, T/C (second compound 3.16 µM, first compound 0.01 µM): 26.2% | viability, T/C (second compound 3.16 µM, first compound 0.0316 µM): 22.1% | viability, T/C (second compound 10 µM, first compound 0.0001 µM): 53.8% | viability, T/C (second compound 10 µM, first compound 0.000316 µM): 39% | viability, T/C (second compound 10 µM, first compound 0.001 µM): 43% | viability, T/C (second compound 10 µM, first compound 0.00316 µM): 34.8% | viability, T/C (second compound 10 µM, first compound 0.01 µM): 26.8% | viability, T/C (second compound 10 µM, first compound 0.0316 µM): 22.8%
